Source: US20230123334A1, “AMINO LIPID COMPOUND, PREPARATION METHOD THEREFOR, AND APPLICATION THEREOF” (SHENZHEN SHENXIN BIOTECHNOLOGY CO., LTD., priority 2020, published 2023)

Key:
[1] = test system: HEK293 cells; assay: Preliminary screening as DNA vectors, GFP transfection of HEK293 cells; format: cell-based; details: HEK293 cells; lipid/DOPE liposome with 75 ng plasmid DNA (psin-EGFP-IRES-Puro); number of cells expressing GFP divided by total number of nuclei (Hoechst)
Method in brief: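 Lipid + DOPE liposomes (NaOAc, pH 5.6) complexed w/ 75 ng psin-EGFP-IRES-Puro, 30 min RT; added to 3-5×10^4 HEK293/well, 37° C. Hoechst 0.2 μg/mL at 20-24 h, imaged after further 20-24 h. Efficiency = GFP+ cells / total nuclei.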

[2] = test system: HEK293 cells; assay: Preliminary screening as mRNA vectors, EGFP mRNA transfection of HEK293 cells; format: cell-based; details: HEK293 cells, 96-well plates, EGFP mRNA 50 ng per well; percentage of GFP fluorescent cells relative to total number of cells (Hoechst)
Method in brief: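 Each well of HEK293 cells received 50 ng of EGFP mRNA. Efficiency was expressed as percent GFP-expressing cells over Hoechst-defined total cell number.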

SMILES | Absolute DNA transfection efficiency in HEK293 cells [1] [%] | Absolute mRNA transfection efficiency in HEK293 cells [2] [%]
CCCCCCCCCCCCCCCCCCSc1nc(NCCCN2CCN(C)CC2)nc(SCCCCCCCCCCCCCCCCCC)n1 [Compound S18S18D9] | 0.9 | 0.1
CCCCCCCCCCCNc1nc(NCCCCCCCCCCC)nc(NCCN2CCCC2)n1 [Compound N11N11D3] | 1.8 | 1.4
CCCCCCCCCCCCN(CCCCCCCCCCCC)c1nc(NCCCCCCC)nc(NCCN2CCN(C)CC2)n1 [N7^2N12D5] | 0.9 | 2.4
CCCCCCCCCCCCCCCCCCSc1nc(NCCCN2CCN(C)CC2)nc(SCCCCCCCCCC)n1 [Compound S10S18D9] | 6.5 | 2.4
CCCCCCCCCNc1nc(NCCCCCC)nc(NCCCN2CCN(C)CC2)n1 [Compound N6N9D9] | 0.0 | 0.0
CCCCCCCCCCCCCCCCCCSc1nc(NCCN2CCN(C)CC2)nc(SCCCCCCCCCCCCCCCCCC)n1 [Compound S18S18D5] | 0.1 | 0.1
CCCCCCCCCCCCCCCNc1nc(NCCCCCCCC)nc(NCCN2CCCC2)n1 [Compound N8N15D3] | 1.5 | 7.6
CCCCCCCCCCCCCCSc1nc(NCCN2CCCCC2)nc(SCCCCCCCCCCC)n1 [Compound S11S14D4] | 3.7 | 0.2
CCCCCCCCCCCCCNc1nc(NCCCCCC)nc(NCC2CCN(C)CC2)n1 [Compound N6N13D10] | 0.0 | 0.0
CCCCCCCCCCCCCCCSc1nc(NCCCN(C)C)nc(SCCCCCCCCCC)n1 [Compound S10S15D6] | 32.8 | 24.6
CCCCCCCCCCCCCNc1nc(NCCCCCCC)nc(NCC2CCN(C)CC2)n1 [Compound N7N13D10] | 1.6 | 1.6
CCCCCCCCCCCCCCCCNc1nc(NCCCCCCCCCCC)nc(NCCN2CCOCC2)n1 [Compound N11N16D2] | 0.0 | 1.0
CCCCCCCCNc1nc(NCCCCCCC)nc(NCC2CCN(C)CC2)n1 [Compound N7N8D10] | 0.0 | 0.6
CCCCCCCCCCCCCCCNc1nc(NCCCCCCCCCCC)nc(NCCN2CCN(C)CC2)n1 [Compound N11N15D5] | 0.2 | 0.8
CCCCCCCCCCCCCCCCCCNc1nc(NCCCCCC)nc(NCCN(C)C)n1 [Compound N6N18D1] | 1.1 | 3.9
CCCCCCCCCCCCSc1nc(NCCN2CCOCC2)nc(SCCCCCCCCCCC)n1 [Compound S11S12D2] | 0.1 | 0.0
CCCCCCCCCCCCCCCCCCNc1nc(NCCCCCCCCCCCCCCCC)nc(NCCN2CCOCC2)n1 [Compound N16N18D2] | 1.2 | 0.0
CCCCCCCCCCCCCCCSc1nc(NCCCN2CCN(C)CC2)nc(SCCCCCCCCCCCCCCC)n1 [Compound S15S15D9] | 0.4 | 0.5
CCCCCCCCCCCCCCCNc1nc(NCCCCCCCCCCCCCCC)nc(NCCN2CCN(C)CC2)n1 [Compound N15N15D5] | 0.9 | 0.0
CCCCCCCCCCCCCNc1nc(NCCN2CCOCC2)nc(N(CCCCCCCCCCCC)CCCCCCCCCCCC)n1 [N13^2N12D2] | 0.1 | 0.5
CCCCCCCCCCCCN(CCCCCCCCCCCC)c1nc(NCCCCCCC)nc(NCCCN2CCOCC2)n1 [N7^2N12D8] | 1.6 | 2.7
CCCCCCCCCCCCCCCCSc1nc(NCCN2CCOCC2)nc(SCCCCCCCCCCCC)n1 [Compound S12S16D2] | 0.0 | 0.0
CCCCCCCCNc1nc(NCCCCCCCC)nc(NCCCN(C)C)n1 [Compound N8N8D6] | 0.0 | 0.0
